# Legend:
# fibroblast cell culture = test: Monomer cytotoxicity, Alamar Blue Assay in fibroblast cell culture; conditions: monomer concentration at which resorufin production was reduced to 50% of control, n=3
# Text: This assay incorporated a fluorometric/colormetric growth indicator based on detection of metabolic activity.
# [1] = Photoreactivity by photo-DSC: time to reach the maximum of the polymerization heat; format: physicochemical
# Protocol: The compositions which are embodiments of the present invention were compared to acrylate and methacrylate based polymer systems as comparative examples.
# The reactivity towards photopolymerization was tested with the help of photo-DSC (differential scanning calorimetry). The measurements were carried out using 2 wt % of 2-hydroxy-1-[4-(2-hydroxyethoxy)phenyl]-2-methyl-1-propanone (Irgacure 2959, Ciba SC) as photoinitiator.
# [2] = test system: osteoblastic MC3T3-E1 cells; test: in vitro; conditions: read-out: LC50; MC3T3-E1 cells cultured five days with monomer; n=3
# Protocol: (§1) The effects of each of vinyl ester 4V, acrylate 4A, and meth-acrylate 4M on osteoblastic MC3T3-E1 cells in vitro was tested by the MTT assay method. The osteoblastic MC3T3-E1 cells were cultured for five days in the presence of each of vinyl ester (4V), acrylate (4A), and meth-acrylate (4M).
# (§2) Cytotoxicity of the newly synthesized monomers and the reference substances together with the thiols and photoinitiator used was examined in osteoblast cell culture by using an Alamar Blue Assay. This assay incorporates a fluorometric/colormetric growth indicator based on the detection of metabolic activity. 1M solutions of the monomers, thiols, and photoinitiator in DMSO (HYBRI-MAX®, Sigma) were prepared. […] For experiments, cells [osteoblasts taken of the strain C57BL/6 of mus musculus (ATCC Catalog No. CRL-2593, MC3T3-E1, Subclone 4)] were cultured in 100 μl DMEM Medium supplemented with 10% FCS, 100 U/ml Penicillin, and 100 μg/ml Streptomycin, in 96-well plates at a density of 6.4×10^3 cells well^−1 for 24 hours in humidified air (95% relative humidity) with 5% CO2 at 37° C. The next day, the cells were treated with 100 μL of the different concentrations of the monomers for 5 days in triplicates. 10 μL of resazurin were added and the cells incubated for 4 hours at 37° C. The fluorescence intensity was measured for excitation at 530 nm and emission at 580 nm and compared to untreated cells (cells+medium). As control groups cells treated with 1% DMSO-solution, a blank value, and PBS-puffer were used.
# in vitro = test: in vitro
# Protocol: as §1, §2
# [3] = Butanediol monomer series, 0% TMP700
# [4] = Butanediol monomer series, 0% TT
# [5] = Butanediol monomer series, 10% TMP700
# [6] = Butanediol monomer series, 10% TT
# [7] = Butanediol monomer series, 20% TMP700
# [8] = Butanediol monomer series, 20% TT
# [9] = Butanediol monomer series, 40% TMP700
# [10] = Butanediol monomer series, 40% TT
# [11] = PEG200 monomer series, 0% TMP700
# [12] = PEG200 monomer series, 10% TMP700
# [13] = PEG200 monomer series, 20% TMP700
# [14] = PEG200 monomer series, 40% TMP700
# [15] = PEG600 monomer series, 0% TMP700
# [16] = PEG600 monomer series, 10% TMP700
# [17] = PEG600 monomer series, 20% TMP700
# [18] = PEG600 monomer series, 40% TMP700
Compound,IC50 [mM] (TC50 values of various monomers) (fibroblast cell culture),"time to reach the maximum of the polymerization heat [1, 3]","time to reach the maximum of the polymerization heat [1, 4]","time to reach the maximum of the polymerization heat [1, 5]","time to reach the maximum of the polymerization heat [1, 6]","time to reach the maximum of the polymerization heat [1, 7]","time to reach the maximum of the polymerization heat [1, 8]","time to reach the maximum of the polymerization heat [1, 9]","time to reach the maximum of the polymerization heat [1, 10]",also measured
"C=COC(=O)CCCCC(=O)OC=C [AVE, adipic acid divinyl ester]",10 mM,4.9 s,4.9 s,8.4 s,7.7 s,2.9 s,5.8 s,2.1 s,2.1 s,–
"C=CC(=O)OCCCCOC(=O)C=C [Butanediol Acrylate, 1,4-Butanediol-di-acrylate]",–,2.7 s,2.7 s,2.9 s,2.5 s,3.5 s,2.8 s,3.5 s,2.7 s,CC50 [2]: < 0.16 mM
"C=C(C)C(=O)OCCCCOC(=O)C(=C)C [Butanediol Methacrylate, 1,4-Butanediol di-methacrylat]",–,28.6 s,28.6 s,90.2 s,87.6 s,85.4 s,83.8 s,75.0 s,55.0 s,CC50 (in vitro): 1.3 mM
"C=COC(=O)OCCCCOC(=O)OC=C [Butanediol Vinyl carbonate, 1,4-butanediol divinyl carbonate]",–,3.3 s,3.3 s,6.1 s,7.1 s,4.4 s,3.0 s,2.1 s,2.4 s,–
"O=C(CCS)OCC(COC(=O)CCS)(COC(=O)CCS)COC(=O)CCS [PTM, pentaerythritol tetra(3-mercaptopropionate)]",10 mM,–,–,–,–,–,–,–,–,"CC50 at 5 days (in vitro; C57BL/6, mouse, osteoblastic MC3T3-E1 cells (Subclone 4, ATCC CRL-2593)): > 10 mM"
"C=CC(=O)OCCOCCOCCOCCOC(=O)C=C [TTEGDAc, Tetra(ethylene glycol) diacrylate]",<0.16 mM,–,–,–,–,–,–,–,–,"time to reach the maximum of the polymerization heat [1, 11]: 2.6 s; time to reach the maximum of the polymerization heat ([1]; PEG200 monomer series, 0% TT): 2.6 s; time to reach the maximum of the polymerization heat [1, 12]: 3.6 s; time to reach the maximum of the polymerization heat ([1]; PEG200 monomer series, 10% TT): 3.5 s; time to reach the maximum of the polymerization heat [1, 13]: 3.6 s; time to reach the maximum of the polymerization heat ([1]; PEG200 monomer series, 20% TT): 3.3 s; time to reach the maximum of the polymerization heat [1, 14]: 3.4 s; time to reach the maximum of the polymerization heat ([1]; PEG200 monomer series, 40% TT): 3.3 s"
"C=C(C)C(=O)OCCOCCOCCOCCOC(=O)C(=C)C [TTEGDMA, Tetra(ethylene glycol) dimethacrylate]",<0.16 mM,–,–,–,–,–,–,–,–,"time to reach the maximum of the polymerization heat [1, 11]: 12.6 s; time to reach the maximum of the polymerization heat ([1]; PEG200 monomer series, 0% TT): 12.6 s; time to reach the maximum of the polymerization heat [1, 12]: 56.0 s; time to reach the maximum of the polymerization heat ([1]; PEG200 monomer series, 10% TT): 51.5 s; time to reach the maximum of the polymerization heat [1, 13]: 55.1 s; time to reach the maximum of the polymerization heat ([1]; PEG200 monomer series, 20% TT): 58.3 s; time to reach the maximum of the polymerization heat [1, 14]: 46.9 s; time to reach the maximum of the polymerization heat ([1]; PEG200 monomer series, 40% TT): 54.0 s"
"C=COC(=O)COCCOCCOCC(=O)OC=C [TUVE, ω,ω′-3,6,9-trioxaundecanedioic acid divinyl ester]",2.5 mM,–,–,–,–,–,–,–,–,–
"Poly(ethylene glycol) diacrylate, MG 600 [PEG600 Acrylate]",–,–,–,–,–,–,–,–,–,"time to reach the maximum of the polymerization heat [1, 15]: 3.2 s; time to reach the maximum of the polymerization heat ([1]; PEG600 monomer series, 0% TT): 3.2 s; time to reach the maximum of the polymerization heat [1, 16]: 3.8 s; time to reach the maximum of the polymerization heat ([1]; PEG600 monomer series, 10% TT): 3.2 s; time to reach the maximum of the polymerization heat [1, 17]: 3.7 s; time to reach the maximum of the polymerization heat ([1]; PEG600 monomer series, 20% TT): 3.0 s; time to reach the maximum of the polymerization heat [1, 18]: 3.2 s; time to reach the maximum of the polymerization heat ([1]; PEG600 monomer series, 40% TT): 3.0 s"
"Poly(ethylene glycol) dimethacrylate, MG 600 [PEG600 Methacrylate]",–,–,–,–,–,–,–,–,–,"time to reach the maximum of the polymerization heat [1, 15]: 10.5 s; time to reach the maximum of the polymerization heat ([1]; PEG600 monomer series, 0% TT): 10.5 s; time to reach the maximum of the polymerization heat [1, 16]: 27.0 s; time to reach the maximum of the polymerization heat ([1]; PEG600 monomer series, 10% TT): 26.3 s; time to reach the maximum of the polymerization heat [1, 17]: 31.2 s; time to reach the maximum of the polymerization heat ([1]; PEG600 monomer series, 20% TT): 31.2 s; time to reach the maximum of the polymerization heat [1, 18]: 30.6 s; time to reach the maximum of the polymerization heat ([1]; PEG600 monomer series, 40% TT): 24.9 s"
